Our source for the IC50 and adrenaline secretion values is paper PMC11123956, “Nobiletin Stimulates Adrenal Hormones and Modulates the Circadian Clock in Mice” (Nutrients, 2024).

The target of test [1] is T1, PDE2A (Homo sapiens, UniProt O00408).
T1 construct: purchased Eurofins Panlabs Discovery Services Taiwan, Ltd. (contract assay); host or cells: insect Sf9 cells
Description: PDE enzyme  assay, PDE2A. Format: biochemical. How it is done: (§1) Enzyme assays for various subtypes of PDE (Table 1 and Figure 4) were conducted by Eurofins Panlabs Discovery Services Taiwan, Ltd. (New Taipei City, Taiwan). In the assays, five or six concentrations of nobiletin over five or six orders of magnitude were examined in experiments conducted in duplicate to determine the IC50 (concentration of nobiletin exerting half-maximal inhibition of control-specific activity). IC50 values were determined by nonlinear least squares regression analysis using MathIQTM (ID Business Solutions Ltd., Woking, UK). FAM-cAMP, FAM-cGMP (0.1 μM), and 100 μM [^3H]cGMP + cGMP were used for the substrate in the human recombinant insect Sf9 cells or Bovine retinal rod outer segments depending on the PDE subtype. The spectrofluorometric quantitation of fluorescein-AMP-IMAP, fluorescein-GMP-IMAP, or [^3H] guanosine was used depending on the PDE subtype. A known […] of each PDE was used as the positive control.

Test [2] addresses T2, PDE11A4 (Homo sapiens, UniProt Q9HCR9).
T2 construct: purchased Eurofins Panlabs Discovery Services Taiwan, Ltd. (contract assay); host or cells: insect Sf9 cells
Description: PDE enzyme  assay, PDE11A4. Format: biochemical. Here is the method:
as §1

Test [3] deals with serum adrenaline. Description: Serum adrenaline ELISA after i.p. injection. The class given is in vivo, mice. To be noted: intraperitoneal injection, 100 mg/kg. Here is the method: Male C57BL/6J mice (7 weeks old) were purchased from Charles River Japan (Kanagawa, Japan) and used for the serum hormone assay and RT-PCR. Male ICR mice were purchased from Tokyo Laboratory Animals Science Co., Ltd. (Tokyo, Japan), and female PERIOD2::LUCIFERASE (PER2::LUC) knock-in mice (ICR background) bred at Waseda University were used for blood glucose measurements and in vivo imaging assays, respectively. The mice were all housed under conditions of controlled temperature (23 °C ± 3 °C), humidity (50% ± 20%), and lighting (lights on from 07:00 to 19:00 at Taisho Pharmaceutical Co., Ltd. or from 08:00 to 20:00 at Waseda University). In the 24 h cycle, Zeitgeber time 0 (ZT0) was designated as the time when the lights were turned on, and ZT12 was designated as the time when the lights were turned off. […]
Serum corticosterone, adrenaline, and adreno-corticotropic hormone (ACTH) levels, and corticotropin releasing factor (CRF) in the hypothalamus, were measured using enzyme-linked immunosorbent assay (ELISA). […] Blood glucose levels were measured using a Glucose PILOT kit (Aventir Biotech, LLC, Carlsbad, CA, USA). The range of blood glucose that could be precisely measured with the kit was 20–600 mg/dL. […]

The subject of test [4] is PDE3. Details: method as in PMID 19906817. To be noted: cited from earlier work.

T1 sequence (O00408 whole entry): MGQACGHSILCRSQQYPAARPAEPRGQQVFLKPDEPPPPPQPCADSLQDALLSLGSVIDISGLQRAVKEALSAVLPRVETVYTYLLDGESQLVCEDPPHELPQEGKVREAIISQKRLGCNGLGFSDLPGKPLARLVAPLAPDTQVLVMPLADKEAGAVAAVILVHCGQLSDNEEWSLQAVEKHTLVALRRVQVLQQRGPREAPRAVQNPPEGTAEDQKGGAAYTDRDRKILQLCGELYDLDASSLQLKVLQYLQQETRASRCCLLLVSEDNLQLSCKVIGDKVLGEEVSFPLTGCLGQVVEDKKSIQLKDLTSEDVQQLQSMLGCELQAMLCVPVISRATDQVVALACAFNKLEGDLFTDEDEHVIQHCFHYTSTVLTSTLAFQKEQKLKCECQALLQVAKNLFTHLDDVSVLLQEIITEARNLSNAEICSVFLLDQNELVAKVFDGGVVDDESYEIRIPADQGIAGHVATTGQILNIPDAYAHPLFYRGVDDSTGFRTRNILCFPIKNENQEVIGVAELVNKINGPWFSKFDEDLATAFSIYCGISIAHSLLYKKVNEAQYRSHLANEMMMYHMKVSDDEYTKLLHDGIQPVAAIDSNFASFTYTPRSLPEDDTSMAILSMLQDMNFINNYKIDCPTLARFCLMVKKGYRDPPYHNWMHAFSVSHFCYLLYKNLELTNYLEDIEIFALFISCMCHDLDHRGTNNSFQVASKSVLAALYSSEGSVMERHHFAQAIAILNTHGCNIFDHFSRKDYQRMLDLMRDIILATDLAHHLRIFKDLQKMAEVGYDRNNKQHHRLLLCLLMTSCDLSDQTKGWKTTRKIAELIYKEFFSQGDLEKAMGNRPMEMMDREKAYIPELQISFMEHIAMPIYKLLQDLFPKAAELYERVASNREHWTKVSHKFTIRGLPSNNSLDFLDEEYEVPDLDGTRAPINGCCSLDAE
T2 sequence (Q9HCR9 whole entry): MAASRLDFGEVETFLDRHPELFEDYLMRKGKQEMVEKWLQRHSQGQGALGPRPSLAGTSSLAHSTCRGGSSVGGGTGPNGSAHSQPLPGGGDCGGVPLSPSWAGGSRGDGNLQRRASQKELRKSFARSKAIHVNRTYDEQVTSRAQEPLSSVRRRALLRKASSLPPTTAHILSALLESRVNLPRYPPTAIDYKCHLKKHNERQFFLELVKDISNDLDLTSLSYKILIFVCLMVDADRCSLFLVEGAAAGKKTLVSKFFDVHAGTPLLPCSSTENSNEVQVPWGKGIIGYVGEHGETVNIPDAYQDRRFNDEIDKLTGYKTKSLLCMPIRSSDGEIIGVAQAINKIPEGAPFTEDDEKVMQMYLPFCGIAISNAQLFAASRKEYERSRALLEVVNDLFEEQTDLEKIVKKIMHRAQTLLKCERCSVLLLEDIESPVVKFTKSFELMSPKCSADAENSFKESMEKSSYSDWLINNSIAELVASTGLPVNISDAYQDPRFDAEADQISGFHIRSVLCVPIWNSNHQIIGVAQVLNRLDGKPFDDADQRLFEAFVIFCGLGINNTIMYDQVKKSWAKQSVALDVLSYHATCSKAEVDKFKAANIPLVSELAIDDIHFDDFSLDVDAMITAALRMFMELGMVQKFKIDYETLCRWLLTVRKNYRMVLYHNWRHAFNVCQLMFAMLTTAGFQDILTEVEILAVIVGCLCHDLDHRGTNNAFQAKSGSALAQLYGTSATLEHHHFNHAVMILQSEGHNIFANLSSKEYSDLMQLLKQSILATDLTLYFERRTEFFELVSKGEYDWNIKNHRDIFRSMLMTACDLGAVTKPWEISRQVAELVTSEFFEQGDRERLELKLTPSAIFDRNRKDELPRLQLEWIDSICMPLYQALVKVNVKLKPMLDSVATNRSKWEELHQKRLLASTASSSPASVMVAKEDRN

For `COc1ccc(-c2cc(=O)c3c(OC)c(OC)c(OC)c(OC)c3o2)cc1OC` [nobiletin], the IC50 in test [1] was 9.91 µM; in test [2], 31 µM; in test [4], 10.4 µM. Also, the adrenaline secretion result in test [3] was “significantly and potently stimulated”.

As usually defined, the IC50 is the midpoint of a concentration-inhibition curve.
